Test results published in ChEMBL document CHEMBL1156401, “A neutrophil multitarget functional bioassay to detect anti-inflammatory natural products” (J Nat Prod, 2002).
Converted amounts (≈) assume the structure as drawn.

Tests used:
[1] = species on record: Homo sapiens; experiment: Induction of elastase release in human PMNC assessed as increase in p-nitroanilide formation; format: functional
[2] = Antiinflammatory activity against cytochalasin-activated human PMNC assessed as inhibition of platelet activating factor-induced elastase release by p-nitroanilide formation assay; format: functional

In the case of `C[C@H]1O[C@@H](O[C@H]2[C@@H](O)C[C@H](O[C@H]3[C@@H](O)C[C@H](O[C@H]4CC[C@@]5(C)[C@H](CC[C@@H]6[C@@H]5CC[C@]5(C)[C@@H](C7=CC(=O)OC7)CC[C@]65O)C4)O[C@@H]3C)O[C@@H]2C)C[C@H](O)[C@@H]1O`, the Activity [1] is reported as “Dose-dependent effect”.
Compound `C[C@@H]1C(=O)O[C@H]2[C@H](O)[C@@]34[C@H]5C[C@@H](C(C)(C)C)[C@]36[C@@H](OC(=O)[C@@H]6O)O[C@@]4(C(=O)O5)[C@@]12O` [GINKOLIDE B] has an IC50 [2] of 72 µg/mL (≈ 170 µM).
